According to patent US9926297B2, “Bicyclic AZA compounds as muscarinic M1 receptor and/or M4 receptor agonists” (Heptares Therapeutics Limited, priority 2014, dated 2018):

Key:
[1] = biological target: T1, human muscarinic M1 receptor (Homo sapiens, UniProt P11229); assay: Alphascreen Surefire phospho-ERK1/2 functional assay, M1; type: cell-based; settings: for EC50: CHO cells stably expressing human M1, phospho-ERK1/2, * = variable results, read-out: pEC50 M1 (converted); for Emax: CHO, read-out: % Emax cf. ACh, M1, CHO cells stably expressing human M1, relative to ACh
T1 sequence (P11229 1-460): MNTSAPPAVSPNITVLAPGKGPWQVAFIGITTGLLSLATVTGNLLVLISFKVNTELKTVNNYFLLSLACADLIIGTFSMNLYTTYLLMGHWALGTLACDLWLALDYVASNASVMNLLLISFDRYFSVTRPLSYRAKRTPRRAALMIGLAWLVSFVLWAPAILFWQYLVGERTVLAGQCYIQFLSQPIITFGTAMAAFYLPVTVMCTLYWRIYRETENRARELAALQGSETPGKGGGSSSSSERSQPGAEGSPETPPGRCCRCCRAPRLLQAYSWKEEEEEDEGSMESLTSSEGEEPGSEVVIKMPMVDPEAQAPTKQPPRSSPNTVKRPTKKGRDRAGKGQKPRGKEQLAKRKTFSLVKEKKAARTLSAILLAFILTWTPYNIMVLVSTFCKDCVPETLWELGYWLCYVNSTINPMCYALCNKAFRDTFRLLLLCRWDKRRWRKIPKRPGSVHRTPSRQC

[2] = biological target: T2, human muscarinic M4 receptor (Homo sapiens, UniProt P08173); assay: Alphascreen Surefire phospho-ERK1/2 functional assay, M4; type: cell-based; settings: for EC50: CHO cells stably expressing human M4, phospho-ERK1/2, * = variable results, read-out: pEC50 M4 (converted); for Emax: CHO, read-out: % Emax cf. ACh, M4, CHO cells stably expressing human M4, relative to ACh
T2 construct: expressed in transfected cells
T2 sequence (P08173 1-479): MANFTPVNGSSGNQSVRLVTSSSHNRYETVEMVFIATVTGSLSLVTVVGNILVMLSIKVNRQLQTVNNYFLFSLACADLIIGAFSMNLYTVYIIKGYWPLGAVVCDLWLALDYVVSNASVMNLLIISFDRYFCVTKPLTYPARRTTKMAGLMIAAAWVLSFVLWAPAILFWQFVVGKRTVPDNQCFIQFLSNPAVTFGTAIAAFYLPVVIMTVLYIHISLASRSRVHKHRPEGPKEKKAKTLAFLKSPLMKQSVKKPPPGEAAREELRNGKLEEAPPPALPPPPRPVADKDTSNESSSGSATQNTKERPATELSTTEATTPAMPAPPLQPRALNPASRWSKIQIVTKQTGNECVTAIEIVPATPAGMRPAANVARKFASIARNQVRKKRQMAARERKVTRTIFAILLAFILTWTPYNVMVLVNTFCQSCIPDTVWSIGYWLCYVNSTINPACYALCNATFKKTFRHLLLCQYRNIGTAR

[3] = biological target: T3, human muscarinic M2 receptor (Homo sapiens, UniProt P08172); assay: Alphascreen Surefire phospho-ERK1/2 functional assay, M2; settings: for Emax: CHO, read-out: % Emax cf. ACh, M2, CHO cells stably expressing human M2, relative to ACh
T3 sequence (P08172 1-466): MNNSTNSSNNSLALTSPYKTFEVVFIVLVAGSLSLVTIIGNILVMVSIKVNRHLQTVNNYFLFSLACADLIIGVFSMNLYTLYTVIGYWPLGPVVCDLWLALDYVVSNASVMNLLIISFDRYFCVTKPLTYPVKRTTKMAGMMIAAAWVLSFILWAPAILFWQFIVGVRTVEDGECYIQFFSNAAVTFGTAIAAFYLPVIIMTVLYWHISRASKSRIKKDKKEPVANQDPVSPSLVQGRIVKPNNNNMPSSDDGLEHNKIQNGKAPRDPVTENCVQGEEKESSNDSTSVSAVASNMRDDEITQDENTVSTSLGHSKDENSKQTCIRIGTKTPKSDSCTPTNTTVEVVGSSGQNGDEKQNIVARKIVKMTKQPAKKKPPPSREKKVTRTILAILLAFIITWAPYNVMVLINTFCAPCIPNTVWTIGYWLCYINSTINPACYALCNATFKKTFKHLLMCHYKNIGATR

[4] = biological target: human muscarinic M3 receptor (Homo sapiens, UniProt P20309); assay: Alphascreen Surefire phospho-ERK1/2 functional assay, M3; settings: for Emax: CHO, read-out: % Emax cf. ACh, M3, CHO cells stably expressing human M3, relative to ACh; for EC50: pEC50 M3, CHO cells stably expressing human M3, phospho-ERK1/2, * = variable results
Sequence of human muscarinic M3 receptor (P20309 whole entry): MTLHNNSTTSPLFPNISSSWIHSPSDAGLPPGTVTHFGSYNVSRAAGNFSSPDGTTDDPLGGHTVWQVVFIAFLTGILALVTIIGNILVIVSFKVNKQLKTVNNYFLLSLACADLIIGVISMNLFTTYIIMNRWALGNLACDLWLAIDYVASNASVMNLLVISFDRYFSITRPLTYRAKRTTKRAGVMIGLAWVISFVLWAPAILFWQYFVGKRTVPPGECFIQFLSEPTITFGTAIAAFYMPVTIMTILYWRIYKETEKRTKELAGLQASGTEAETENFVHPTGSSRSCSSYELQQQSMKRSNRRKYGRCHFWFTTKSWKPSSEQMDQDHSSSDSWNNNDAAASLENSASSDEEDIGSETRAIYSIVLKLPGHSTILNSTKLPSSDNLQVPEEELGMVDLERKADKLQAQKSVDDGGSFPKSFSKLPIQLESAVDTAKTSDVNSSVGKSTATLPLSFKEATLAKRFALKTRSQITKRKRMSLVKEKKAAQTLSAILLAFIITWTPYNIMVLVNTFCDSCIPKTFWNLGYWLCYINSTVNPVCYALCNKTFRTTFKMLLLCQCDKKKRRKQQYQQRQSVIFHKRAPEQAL

SMILES	EC50 [1]	Emax [1]	EC50 [2]	Emax [2]	EC50 [3]	Emax [3]	Emax [4]	EC50 [4]
CCOC(=O)N1CCC2(CC(N3CCC(C4CC(C)CNC4=O)CC3)C2)C1 (single isomer, unassigned) [4-4 Isomer 2, ethyl 2-(5-methyl-2-oxo-3,4′-bipiperidin-1′-yl)-6-azaspiro[3.4]octane-6-carboxylate]	31.6 nM	97%	5.01 nM	73%	> 20 µM	19%	21%	> 20 µM
CCOC(=O)N1CCC2(CC(N3CCC(C4CCCN(CC)C4=O)CC3)C2)C1 (single isomer, unassigned) [4-5 Isomer 2, ethyl 2-(1-ethyl-2-oxo-[3,4′-bipiperidin]-1′-yl)-6-azaspiro[3.4]octane-6-carboxylate]	501 nM	52%	15.8 nM	60%	> 20 µM	9%	9%	> 20 µM
CCOC(=O)N1CCC2(CC(N3CCC(C4CCCN(C(C)C)C4=O)CC3)C2)C1 (single isomer, unassigned) [4-6 Isomer 2, ethyl 2-[2-oxo-1-(propan-2-yl)-3,4′-bipiperidin-1′-yl]-6-azaspiro[3.4]octane-6-carboxylate]	126 nM	66%	50.1 nM	77%	> 20 µM	75%	9%	> 20 µM
CCOC(=O)N1CCC2(CC(N3CCC(N4CCCC(F)(F)C4)CC3)C2)C1 (single isomer, unassigned) [4-13 Isomer 2, ethyl 2-(3,3-difluoro-1,4′-bipiperidin-1′-yl)-6-azaspiro[3.4]octane-6-carboxylate]	631 nM	51%	100 nM	59%	> 20 µM	10%	13%	> 20 µM
CCOC(=O)N1CCC2(CC(N3CCC(N4CCCC[C@@H]4C(=O)OC)CC3)C2)C1 (single isomer, unassigned) [4-15 Isomer 2]	251 nM	82%	63.1 nM	113%	> 20 µM	7%	13%	> 20 µM

Further lines, results first:

EC50 [1]	Emax [1]	EC50 [2]	Emax [2]	EC50 [3]	Emax [3]	Emax [4]	EC50 [4]	SMILES
3980 nM	73%	251 nM	67%	> 20 µM	1%	10%	> 20 µM	CCOC(=O)N1CCC2(CC(N3CCC(N4CCCOC4=O)CC3)C2)C1 (single isomer, unassigned) [4-7 Isomer 2, ethyl 2-[4-(2-oxo-1,3-oxazinan-3-yl)piperidin-1-yl]-6-azaspiro[3.4]octane-6-carboxylate]
501 nM	42%	63.1 nM	74%	> 20 µM	3%	8%	> 20 µM	CCOC(=O)N1CCC2(CC(N3CCC(N4CCCNC4=O)CC3)C2)C1 (single isomer, unassigned) [4-8 Isomer 1, ethyl 2-[4-(2-oxotetrahydropyrimidin-1(2H)-yl)piperidin-1-yl]-6-azaspiro[3.4]octane-6-carboxylate]
> 20000 nM	19%	39.8 nM	32%	> 20 µM	7%	14%	> 20 µM	CCOC(=O)N1CCC2(CC(N3CCC(N4CCSCC4)CC3)C2)C1 (single isomer, unassigned) [4-12 Isomer 2, ethyl 2-[4-(thiomorpholin-4-yl)piperidin-1-yl]-6-azaspiro[3.4]octane-6-carboxylate]
200 nM	28%	20 nM	48%	> 20 µM	55%	0%	> 20 µM	CCOC(=O)N1CCC2(CC(N3CCC(N4CCC(F)(F)CC4)CC3)C2)C1 (single isomer, unassigned) [4-14 Isomer 2, ethyl 2-(4,4-difluoro-1,4′-bipiperidin-1′-yl)-6-azaspiro[3.4]octane-6-carboxylate]
